In one data set the test system is neuronal stem cells. The settings on record: ref Liang et al.; cited from earlier work.
A further data set relates to PPARγ. Also on record: method as in Crosthwait et al. 2025; Sun et al. 2025. The settings on record: ref Crosthwait et al. 2025; Sun et al. 2025; cited from earlier work.
Data set [1] concerns Tox21 assays. The settings on record: cited from earlier work.
The test system of data set [2] is ERα. The settings on record: cited from earlier work.
For data set [3] the following is noted: cited from earlier work.
Data set [4] has as its system ERα. The data set is described as follows: Literature ERα reporter gene assays (comparison). Type of data set: cell-based. The settings on record: for EC10, approx.: in M (unit assumed). The procedure:
S5.4: Comparison with literature data for ERα reporter gene assays
To improve data comparability with our own results we converted reported EC₅₀ to EC₁₀ by dividing by 9, which is the ratio for log-logistic concentration-response curves with a hillslope of 1 (Figure S9a). Additionally, REPBPA values were calculated to enable a more consistent evaluation. Methodological differences between studies must be considered, as Reiniger et al.24 used the YES assay, while Goksøyr et al.25 applied ERα from fish (Figure S9b).
Cyan symbols highlight the ER-UAS-bla GripTite (this study and Tox21GenBLA).
(1 picture or pasted object on this page, not shown here)
(In general: A reporter such as luciferase makes a cellular process visible.)

Data set [5] concerns Tox21 assays. Kind of data set: Re-evaluated Tox21 data (Adamovsky et al.), REPBPA and SRbaseline.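 For all read-outs here: published Tox21 results reanalysed with a revised model predicting baseline toxicity.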 The settings on record: for SRbaseline: Specificity Ratio.
Source text: (§1) We also reanalyzed the Tox21 data of Adamovsky et al. with the updated baseline toxicity prediction model (Table S2).
The conditions of data set [6]: 15 min.
Procedure: The mixtures were adjusted to a final volume of 100 μL with acetonitrile (ACN). The reaction mix was incubated for 15 min at 30 °C and 1000 rpm on a Bioshake iQ orbital shaker from QInstruments (Jena, Germany). Additionally, a mixture without test compounds was prepared as a control. Subsequently, 10 μL of the reaction mixture was transferred into a conical dosing vial and evaporated under a nitrogen flow.
For chemical analysis, 10 μL of the reaction mixture was concentrated under vacuum (CentriVap, Labconco, Kansas City, MO, USA), diluted to 1 mg/L in ACN or ethyl acetate. The chemical analysis of the reaction mixtures was performed using liquid chromatography (LC) and gas chromatography (GC) coupled with various detection techniques, preferably Multiple Reaction Monitoring (MRM). Data acquisition and processing were carried out using the software MassHunter. Quantification was based on external calibrations.
The Cparent-Ratio quantifies the extent of oxidation of the parent compound after the abiotic CYP reaction. It was calculated as the ratio of the parent compound concentration after oxidation (C parent, after oxidation) to its concentration before oxidation (C parent, before oxidation) as shown in eq . […] 8 Cparent‐Ratio=Cparent,after oxidation/Cparent,before oxidation
For data set [7], the system named is Tox21 assays.
Source text: as §1
Where [8] appears, read: TOX21_AR_LUC_MDAKB2_Antagonist_0,5nM_R1881, re-evaluated Tox21 data, ref Adamovsky et al 2024.
The mark [9] stands for this setting: TOX21_PPARg_BLA_antagonist_ratio, re-evaluated Tox21 data, ref Adamovsky et al 2024.
[10] abbreviates: Tox21BLA, ref Adamovsky et al. 2024.
Where [11] appears, read: Tox21Luc, ref Adamovsky et al. 2024.
The mark [12] stands for this setting: estrogen receptor from Atlantic cod (Gadus morhua), ref Goksøyr et al 2024.
Where [13] appears, read: Atlantic cod estrogen receptor, approximated from literature EC50, ref Goksøyr et al 2024.
The mark [14] stands for this setting: Atlantic cod estrogen receptor, ref Goksøyr et al 2024.
The mark [15] stands for this setting: approximated from literature EC50, ref Pelch et al 2019.
Setting [16] is: approximated from literature EC50, ref Reiniger et Oehlmann 2024.
[17] abbreviates: approximated from literature values, ref Kojima et al 2019.
[18] abbreviates: relative estrogenic potency vs BPA, ref Kojima et al 2019.
The mark [19] stands for this setting: relative estrogenic potency vs BPA, ref Pelch et al 2019.
Setting [20] is: relative estrogenic potency vs BPA, ref Reiniger et Oehlmann 2024.
[21] abbreviates: TOX21_AR_LUC_MDAKB2_Antagonist_0,5nM_R1881, Relative Effect Potency.
Where [22] appears, read: TOX21_AR_LUC_MDAKB2_Antagonist_0,5nM_R1881.
Setting [23] is: TOX21_PPARg_BLA_antagonist_ratio.
The mark [24] stands for this setting: ATG_PPARg_TRANS_up, re-evaluated Tox21 data, ref Adamovsky et al 2024.
The mark [25] stands for this setting: ATG_PPARg_TRANS_up, Relative Effect Potency.

Where two headings read alike, the source gives them in different places.

On to `CC(C)(c1ccc(O)cc1)c1ccc(O)cc1` [BPA, 4,4'-(Propane-2,2-diyl)diphenol, reference compound], for which the “concentration with significant reduction in average neurite length” value (from here on “concentration with significant reduction”) with neuronal stem cells is on record as 1 nM. In addition, in the data set with PPARγ, the “PPARγ transactivation reported in the literature” value is given as “No agonism was detected”. Moreover, the EC10 in the data set on Tox21 assays [1] (ATG_NRF2_ARE_CIS_up, re-evaluated Tox21 data, ref Adamovsky et al 2024) was 7.56e-06 M; with Tox21 assays [1] (setting [8]) it was 2.42e-06 M; in the data set with Tox21 assays [1] (TOX21_CAR_Agonist, re-evaluated Tox21 data, ref Adamovsky et al 2024), 1.37e-06 M; in the data set on Tox21 assays [1] (TOX21_CAR_Antagonist, re-evaluated Tox21 data, ref Adamovsky et al 2024), 5.45e-07 M; in the data set on Tox21 assays [1] (setting [9]), 7.65e-06 M; in the data set on Tox21 assays [1] (setting [10]), 5.92E-07. Moreover, the EC10 with Tox21 assays [1] (setting [11]) was 5.63E-08. The EC50 with ERα [2] (setting [12]) is 1900 nM; with ERα [2] (ref Kojima et al 2019), 330 nM; in the data set with ERα [2] (ref Pelch et al 2019) it was 1200 nM; with ERα [2] (ref Reiniger et Oehlmann 2024) it was 2260 nM. The Efficacy % is 110.30% in the data set on ERα [2] (ref Pelch et al 2019) and 9.42E+01% in the data set with ERα [2] (ref Reiniger et Oehlmann 2024). In [3] (exp. + log(1.36 kg/L), ref Endo and Goss 2011), the “log (KBSAw /(Lw/Lprotein)) (neutral species)” value was 3.57. Moreover, in data set [3] (ref Hansch, 1995), the “predicted or literature experimental log Kow” value is on record as 3.32. Besides, the “log D lipw” value in [3] (pH 7.4, ref Kwon et al. 2006) was 3.65. Besides, the “log (DBSAw /(Lw/Lprotein) (pH7.4))” value in data set [3] (ref Endo and Goss 2011) is 3.01. Moreover, the “log (KBSAw /(Lw/kgprotein)) (neutral species)” value in data set [3] (ref Endo and Goss 2011) is 3.44. Besides, the “log (Dlipw/(Lwater/kglipid) or (Lwater/Llipid)) (pH 7.4)” value in data set [3] (ref Kwon et al. 2006) is reported as 3.65. Moreover, the “EC10, approx.” value is listed as about 2.11E-07 in the data set with ERα [4] (setting [13]), about 1.33E-07 in the data set on ERα [4] (setting [15]), about 2.51E-07 with ERα [4] (setting [16]) and about 3.65E-08 in the data set on ERα [4] (setting [17]). The REPBPA was 1.00E+00 in the data set with ERα [4] (setting [14]); 1.00E+00 in the data set on ERα [4] (setting [18]); 1.00E+00 in the data set on ERα [4] (setting [19]); 1.00E+00 in the data set on ERα [4] (setting [20]); 1.00 with Tox21 assays [5] (ATG_NRF2_ARE_CIS_up, Relative Effect Potency); 1.00 in the data set with Tox21 assays [5] (setting [21]). For the same molecule, the REPBPA in the data set with Tox21 assays [5] (TOX21_CAR_Agonist, Relative Effect Potency) is given as 1.00; in the data set with Tox21 assays [5] (TOX21_CAR_Antagonist, Relative Effect Potency) it was 1.00; in the data set on Tox21 assays [5] (setting [10]), 1.00E+00; in the data set on Tox21 assays [5] (setting [11]), 1.00E+00. The SRbaseline in the data set on Tox21 assays [5] (ATG_NRF2_ARE_CIS_up) was 10.51; with Tox21 assays [5] (setting [22]), 32.80; with Tox21 assays [5] (TOX21_CAR_Agonist), 57.94; in the data set on Tox21 assays [5] (TOX21_CAR_Antagonist) it was 145.9; in the data set on Tox21 assays [5] (setting [23]), 10.39.
For `Oc1ccc(Cc2ccc(O)cc2)cc1` [BPF, Bis(4-hydroxyphenyl)methane], the “concentration with significant reduction” value with neuronal stem cells is reported as 1 nM. Further, the EC10 in the data set on Tox21 assays [1] (setting [24]) was 3.95e-06 M; in the data set with Tox21 assays [1] (setting [9]), 9.55e-06 M; in the data set with Tox21 assays [1] (setting [11]) it was 8.91E-08. Moreover, the EC50 in the data set on ERα [2] (setting [12]) is 3800 nM; in the data set on ERα [2] (ref Kojima et al 2019), 320 nM; in the data set on ERα [2] (ref Pelch et al 2019) it was 1600 nM; with ERα [2] (ref Reiniger et Oehlmann 2024) it was 2540 nM. Further, the Efficacy % in the data set on ERα [2] (ref Pelch et al 2019) is 63.10%; in the data set with ERα [2] (ref Reiniger et Oehlmann 2024), 1.05E+02%. For the same molecule, the “predicted or literature experimental log Kow” value in data set [3] (ref Hansch, 1995) is given as 2.91. Moreover, in data set [6], the “reduction of C parent after aCYP oxidation” value amounted to 48%. Further, the “EC10, approx.” value with ERα [4] (setting [13]) is recorded as about 4.22E-07; with ERα [4] (setting [15]), about 1.78E-07; in the data set on ERα [4] (setting [16]) it was about 2.82E-07; in the data set with ERα [4] (setting [17]), about 5.50E-08. For the same molecule, the REPBPA with ERα [4] (setting [14]) was found to be 5.00E-01; in the data set with ERα [4] (setting [18]), 6.64E-01; in the data set on ERα [4] (setting [19]), 7.50E-01; in the data set with ERα [4] (setting [20]), 8.90E-01; in the data set on Tox21 assays [5] (setting [25]) it was 0.40; with Tox21 assays [5] (setting [11]), 4.84E-01. The SRbaseline in the data set on Tox21 assays [5] (ATG_PPARg_TRANS_up) is 41.61; in the data set on Tox21 assays [5] (setting [23]), 17.20.
Take `O=S(=O)(c1ccc(O)cc1)c1ccc(O)cc1` [BPS, 4,4'-Sulfonyldiphenol]: the “concentration with significant reduction” value with neuronal stem cells is listed as 1 nM. The figures for the EC50 in the data set on ERα [2] (setting [12]), in the data set on ERα [2] (ref Kojima et al 2019) and in the data set on ERα [2] (ref Pelch et al 2019) were 83300 nM, 5400 nM and 1300 nM, respectively. Also, the Efficacy % in the data set with ERα [2] (ref Pelch et al 2019) was 61.60%; in the data set with ERα [2] (ref Reiniger et Oehlmann 2024), 7.90E+00%. Also, the “REPBPA,ERα reported in the literature” value in the data set with ERα [2] (ref Text S5.4, Tables S2 and S7) is 0.02–1. In data set [6], the “% Loss” value was -2%. Further, the “EC10, approx.” value is reported as about 9.26E-06 in the data set on ERα [4] (setting [13]), about 1.44E-07 in the data set with ERα [4] (setting [15]), about 7.13E-09 with ERα [4] (setting [16]) and about 8.50E-07 in the data set with ERα [4] (setting [17]). The REPBPA stood at 2.28E-02 in the data set with ERα [4] (setting [14]); 4.29E-02 in the data set with ERα [4] (setting [18]); 9.23E-01 in the data set on ERα [4] (setting [19]); 3.52E+01 in the data set on ERα [4] (setting [20]); 1.00 in the data set with Tox21 assays [5] (ATG_chAR_XSP2_up, Relative Effect Potency); 0.0653 with Tox21 assays [5] (setting [21]). The values for the REPBPA with Tox21 assays [5] (setting [10]) and with Tox21 assays [5] (setting [11]) were 1.59E-01 and 1.68E-02, respectively. The SRbaseline with Tox21 assays [5] (ATG_PPARg_TRANS_up) is on record as 2973; in the data set on Tox21 assays [5] (ATG_chAR_XSP2_up) it was 645.8; in the data set with Tox21 assays [5] (ATG_hPPARg_XSP2_up) it was 3669; in the data set on Tox21 assays [5] (setting [22]) it was 127.8.
With `Oc1ccc(Sc2ccc(O)cc2)cc1` [BPT, 4,4'-Thiodiphenol], the results for the EC10 in the data set with Tox21 assays [1] (setting [8]), in the data set on Tox21 assays [1] (setting [9]) and with Tox21 assays [1] (setting [11]) were 1.43e-06 M, 2.66e-06 M and 7.19E-08, respectively. For the same molecule, in data set [3] (ref Hansch, 1995), the “predicted or literature experimental log Kow” value is 3.34. Further, the REPBPA in the data set on Tox21 assays [5] (setting [21]) is 1.69; in the data set with Tox21 assays [5] (setting [11]), 8.32E-01. Besides, the values for the SRbaseline in the data set with Tox21 assays [5] (setting [22]) and in the data set with Tox21 assays [5] (setting [23]) were 66.82 and 35.93, respectively.
In the case of `O=C(OCc1ccccc1)c1ccc(O)cc1` [BzPB, Benzyl 4-hydroxybenzoate], the Efficacy % in the data set on ERα [2] (ref Pelch et al 2019) was 19.70%. Moreover, the “predicted or literature experimental log Kow” value in [3] (ref Lehner 1993) is 3.56.
`CC(C)(c1cc(Br)c(O)c(Br)c1)c1cc(Br)c(O)c(Br)c1` [TBBPA, 3,3',5,5'-Tetrabromobisphenol A]: the EC10 in the data set on Tox21 assays [1] (setting [24]) is 4.64e-07 M; in the data set with Tox21 assays [1] (ATG_hPPARg_XSP1_up, re-evaluated Tox21 data, ref Adamovsky et al 2024), 5.02e-07 M; in the data set with Tox21 assays [1] (ATG_hPPARg_XSP2_up, re-evaluated Tox21 data, ref Adamovsky et al 2024) it was 2e-07 M; in the data set on Tox21 assays [1] (setting [9]), 6.2e-08 M. The REPBPA in the data set with Tox21 assays [7] is 29.73; in the data set on Tox21 assays [7] (setting [25]), 3.44; in the data set with Tox21 assays [7] (ATG_hPPARg_XSP1_up, Relative Effect Potency), 2.58; in the data set on Tox21 assays [7] (ATG_hPPARg_XSP2_up, Relative Effect Potency), 6.45. Also, the SRbaseline is 90.68 in the data set on Tox21 assays [7]; 12.11 in the data set with Tox21 assays [7] (ATG_PPARg_TRANS_up, Specificity Ratio); 11.21 in the data set with Tox21 assays [7] (ATG_hPPARg_XSP1_up, Specificity Ratio); 28.04 with Tox21 assays [7] (ATG_hPPARg_XSP2_up, Specificity Ratio).

As a reminder, the EC50 is the concentration that produces a half-maximal response.
